Results reported in patent US9803021B2 (The Regents of the University of California, priority 2012, dated 2017).
Entries after “also recorded” stand apart in the source; their conditions may differ.

Tests used:
Experiment in all cases: Senescence induced β-gal activity at pH 6 (C12FDG, flow cytometry)
Type in all cases: cell-based, human
MM1-144 = conditions: MM1-144, 1 nM, 3 days
Description: (§1) Senescence induced β-galactosidase (β-gal) activity was detected as described previously (Debacq-Chainiaux et al. (2009) Nature Protocols, 4: 1798-1806). […] To induce lysosomal alkalinization, cells were incubated in 100 nM bafilomycin A1 (Sigma) for 1 h. Then cells were incubated for 30 min with the β-gal substrate dodecanoylaminofluorescein di-β-D-galactopyranoside (C12FDG; Invitrogen), which becomes fluorescent after cleavage by β-gal. After washing twice with cold PBS, cells were resuspended in cold PBS containing 1 mM phenylethyl thiogalactoside (PETG), a β-gal inhibitor, and analyzed by flow cytometry for C12-fluorescein.
(§2) Intracellular β-galactosidase (β-gal) activity was measured as an indicator for replicative senescence. […] After treatment, cells were incubated with 100 nM bafilomycin A1 (Sigma) for 1 hour to induce lysosomal alkalinization. Then cells were incubated for 30 minutes with the 33 μM of β-gal substrate dodecanoylaminofluorescein di-β-D-galactopyranoside (C12FDG; Invitrogen), which becomes fluorescent after cleavage to C12-fluorescein. After washing twice with cold PBS, cells were resuspended in cold PBS containing 1 mM phenylethyl thiogalactoside (PETG), a β-gal inhibitor, and analyzed by flow cytometry for C12-fluorescein.

ANBL-6 = conditions: ANBL-6, 1 nM, 3 days (data not shown)
Description: as §1, §2

U266 = conditions: U266, 1 nM, 3 days
Description: as §1, §2

NCI-H929 = conditions: 1 nM, 3 days, listed as anti-CD138-IFNα2
Description: as §1, §2

OCI-My5 = tested on: OCI-My5
Description: as §1, §2

Substance: anti-CD138-IFNα: Fusion protein: murine B-B4 anti-CD138 variable regions, human IgG1κ constant regions, human IFNα2 fused to the antibody C-terminus via SGGGGS linker
- β-gal activity at pH 6 (senescence), result in words (MM1-144): increases in β-gal activity
- β-gal activity at pH 6 (senescence), result in words (ANBL-6): no increases
- β-gal activity at pH 6 (senescence), result in words (U266): no increase under any conditions
- β-gal activity at pH 6 (senescence), result in words (NCI-H929): increases in β-gal activity; also recorded: greater effect than with IFNα2 alone
- β-gal activity at pH 6 (senescence), result in words (OCI-My5; OCI-My5, 1 nM, 3 days (also 4, 6, 7 days)): little or no increase in β-gal activity
- Mode of Action of anti-CD138-IFNα fusion (OCI-My5; OCI-My 5, footnote †): senescence†
